According to patent US6375979B2 (Somerset Pharmaceuticals, Inc., priority 1995, dated 2002):
Values joined by “and” are separate entries in the source; they are usually repeats but may differ in a detail not shown here. Equal entries are not always repeated. Where two headings read alike, the source gives them in different places.

How the values were obtained:
[1] = biological target: T1, dopamine re-uptake system (Rattus norvegicus, UniProt P23977); experiment: Inhibition of dopamine re-uptake in rat neostriatal synaptosome preparation; format: biochemical
T1 construct: (synaptosome preparation) was obtained form fresh rat neostriatal brain tissue; from tissue; host or cells: rat neostriatum, synaptosome preparation
Method: An in vitro nerve terminal preparation (synaptosome preparation) was prepared using fresh rat neostriatal tissue.
FIG. 19: Determination of IC50 Values for Inhibition of Dopamine Re-Uptake.
An in vitro nerve-terminal preparation (synaptosome preparation) was obtained form fresh rat neostriatal brain tissue. Transport by dopamine nerve-terminals was estimated by measuring the uptake of tritiated dopamine.

MAO-B = biological target: T2, MAO-B (Cavia porcellus, UniProt P58028); experiment: In vivo brain MAO-B inhibition in guinea pig hippocampus after 5 days of administration
T2 construct: by human platelets and/or guinea pig hippocampal homogenates; from tissue; host or cells: guinea pig hippocampus homogenate
T2 sequence (P58028 1-520): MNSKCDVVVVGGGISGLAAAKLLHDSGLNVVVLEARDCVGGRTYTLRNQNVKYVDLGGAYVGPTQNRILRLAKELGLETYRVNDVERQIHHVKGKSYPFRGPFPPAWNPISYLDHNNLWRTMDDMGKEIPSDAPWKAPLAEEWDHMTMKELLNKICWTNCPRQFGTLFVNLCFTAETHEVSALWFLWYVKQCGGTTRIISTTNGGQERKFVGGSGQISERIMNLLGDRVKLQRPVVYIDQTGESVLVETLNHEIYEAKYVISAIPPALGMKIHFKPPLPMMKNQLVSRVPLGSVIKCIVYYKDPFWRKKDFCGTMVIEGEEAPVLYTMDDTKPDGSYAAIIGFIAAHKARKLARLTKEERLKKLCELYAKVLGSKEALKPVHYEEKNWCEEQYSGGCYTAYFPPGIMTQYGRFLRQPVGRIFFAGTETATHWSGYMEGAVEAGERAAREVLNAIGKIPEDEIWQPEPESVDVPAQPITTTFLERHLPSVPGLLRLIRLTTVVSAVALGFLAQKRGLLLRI
Method: FIG. 20: In Vivo MAO-B Inhibition in Guinea Pig Hippocampus. […] Animals were then sacrificed and the MAO-B activity in the hippocampus portion of the brain was determined. […] The plots were used to estimate the ID50 dosage for each agent.
Each enantiomer of DMS was administered in vivo by subcutaneous injection once a day for five consecutive days, and inhibition of brain MAO-B activity was then determined.

MAO-A [2] = biological target: T3, MAO-A (Cavia porcellus, UniProt H0UVA2); experiment: In vivo MAO-A inhibition in guinea pig cortex (hippocampus) after 5 s.c. treatments; settings: 10 mg/kg, highest dose tested
T3 sequence (H0UVA2 1-461): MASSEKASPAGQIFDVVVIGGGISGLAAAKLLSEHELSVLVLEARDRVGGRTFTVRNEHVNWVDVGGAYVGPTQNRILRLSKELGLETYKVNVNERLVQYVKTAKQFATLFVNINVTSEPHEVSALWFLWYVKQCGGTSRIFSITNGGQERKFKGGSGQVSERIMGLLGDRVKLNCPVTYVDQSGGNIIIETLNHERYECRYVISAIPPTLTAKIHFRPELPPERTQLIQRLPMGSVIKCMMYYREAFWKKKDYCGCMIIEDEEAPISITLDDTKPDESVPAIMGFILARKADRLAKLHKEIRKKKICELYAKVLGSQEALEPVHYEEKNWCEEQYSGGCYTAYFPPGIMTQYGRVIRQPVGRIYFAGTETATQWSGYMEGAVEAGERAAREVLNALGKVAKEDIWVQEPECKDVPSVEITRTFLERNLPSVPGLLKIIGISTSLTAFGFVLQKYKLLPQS

[3] = test system: TH positive cells in cultured E-14 embryonic mesencephalic cells
MAO-A [4] = biological target: T4, MAO-A (Rattus norvegicus, UniProt P21396)
T4 sequence (P21396 1-526): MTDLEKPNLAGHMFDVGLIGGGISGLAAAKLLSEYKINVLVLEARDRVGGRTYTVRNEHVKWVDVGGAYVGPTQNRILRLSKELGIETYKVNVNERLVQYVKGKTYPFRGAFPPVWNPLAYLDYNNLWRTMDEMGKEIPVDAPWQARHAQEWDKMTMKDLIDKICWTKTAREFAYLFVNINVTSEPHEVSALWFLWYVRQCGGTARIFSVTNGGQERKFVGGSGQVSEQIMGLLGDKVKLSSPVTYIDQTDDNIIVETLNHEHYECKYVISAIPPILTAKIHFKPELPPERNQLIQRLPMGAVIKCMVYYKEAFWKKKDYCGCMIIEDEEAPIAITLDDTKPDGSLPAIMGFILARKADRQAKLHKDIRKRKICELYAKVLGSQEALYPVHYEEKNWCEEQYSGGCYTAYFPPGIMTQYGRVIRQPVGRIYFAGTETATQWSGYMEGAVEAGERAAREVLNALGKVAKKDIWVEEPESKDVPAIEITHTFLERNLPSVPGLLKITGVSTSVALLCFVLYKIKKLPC

[5] = test system: cultured embryonic mesencephalic cells; experiment: Neuronal survival: [3H]dopamine uptake by cultured mesencephalic cells; format: cell-based, rat
Description: The amount of uptake by the cultured brain cells corresponds to axonal growth.

[6] = test system: cultured rat mesencephalic cells; experiment: Medium change (glutamate receptor dependent) model of cell death: TH positive cells; settings: medium change model
Method: In these experiments, cells were plated and allowed to stabilize for several days.

T1 sequence (P23977 whole entry): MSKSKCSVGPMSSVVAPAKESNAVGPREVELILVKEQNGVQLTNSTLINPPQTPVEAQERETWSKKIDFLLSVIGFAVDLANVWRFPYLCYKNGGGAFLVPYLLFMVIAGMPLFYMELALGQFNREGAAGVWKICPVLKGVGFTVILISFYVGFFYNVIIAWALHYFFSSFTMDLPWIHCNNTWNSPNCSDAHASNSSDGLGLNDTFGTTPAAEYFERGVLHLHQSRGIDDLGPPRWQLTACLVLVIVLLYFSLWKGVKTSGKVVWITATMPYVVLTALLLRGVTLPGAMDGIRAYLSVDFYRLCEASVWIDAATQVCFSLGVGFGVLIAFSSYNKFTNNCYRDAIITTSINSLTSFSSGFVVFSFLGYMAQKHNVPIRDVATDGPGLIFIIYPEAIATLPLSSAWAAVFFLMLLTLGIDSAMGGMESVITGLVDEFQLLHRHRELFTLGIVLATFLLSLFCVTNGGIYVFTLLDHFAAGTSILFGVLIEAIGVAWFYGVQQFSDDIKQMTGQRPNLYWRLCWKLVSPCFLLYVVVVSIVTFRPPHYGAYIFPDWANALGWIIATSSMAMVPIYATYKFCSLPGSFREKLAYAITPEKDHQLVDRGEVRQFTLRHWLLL

C#CCN[C@@H](C)Cc1ccccc1 (single isomer, unassigned) [S(+)DMS, ent-desmethylselegiline]
times more potent than either selegiline or R(−)DMS at inhibiting dopamine re-uptake [1]: 4-5 times | 3H-Dopamine uptake, % Reduction x ± SEM ([1]; 1 μM): 24.1 ± 11.7% | 3H-Dopamine uptake, % Reduction x ± SEM ([1]; 10 μM): 47.0 ± 3.1% | 3H-Dopamine uptake, % Reduction x ± SEM ([1]; 100 μM): 15.3 ± 7.7% | times less potent than selegiline, preliminary studies (MAO-B; brain MAO-B in vivo): about 10 times | times less potent than selegiline as an inhibitor of MAO-B, more recent studies (MAO-B; brain MAO-B in vivo, larger group of animals): about 50 times | ED50 (MAO-B; guinea pig, sc, read-out: ID50 for MAO-B in Guinea Pig Hippocampal Cortex, once a day for 5 days, subcutaneous, larger group of animals, FIG. 20): ~0.5 mg/kg | inhibition of MAO-A activity in vivo (MAO-A [2]): did not cause any observable inhibition

desmethylselegiline [R(−)DMS]
3H-Dopamine uptake, % Reduction x ± SEM ([1]; 1 μM): 10.7 ± 2.8% | 3H-Dopamine uptake, % Reduction x ± SEM ([1]; 10 μM): 20.1 ± 3.1% | 3H-Dopamine uptake, % Reduction x ± SEM ([1]; 100 μM): 11.5 ± 1.0% | 3H-Dopamine uptake, % Reduction x ± SEM ([1]; 100 μM (last row of each agent)): 51.3 ± 2.6% | Survival of TH positive cells, % cont. ([3]; 0.5 μM): 226.62% | Survival of TH positive cells, Mean cells/cm^2 ([3]; 0.5 μM): 246.00 ± 22.76 cells/cm^2 | Survival of TH positive cells, % cont. ([3]; 5 μM): 329.76% | Survival of TH positive cells, Mean cells/cm^2 ([3]; 5 μM): 357.95 ± 25.76 cells/cm^2 | Survival of TH positive cells, % cont. ([3]; 50 μM): 360.76% | Survival of TH positive cells, Mean cells/cm^2 ([3]; 50 μM): 391.60 ± 34.93 cells/cm^2 | inhibition (MAO-A [4]; 0.3 µM): 0% | inhibition (MAO-A [4]; 1 μM): 0.7% | inhibition (MAO-A [4]; 3 µM): 4.1% | inhibition (MAO-A [4]; 10 μM): 11.8% | inhibition (MAO-A [4]; 100 μM): 56.1% | 3H-Dopamine Uptake, % Cont ([5]; 0.5 μM): 200.4% | 3H-Dopamine Uptake, Mean ([5]; 0.5 μM): 24020 ± 800 | 3H-Dopamine Uptake, % Cont ([5]; 5 μM): 291.5% | 3H-Dopamine Uptake, Mean ([5]; 5 μM): 34936 ± 2119 | 3H-Dopamine Uptake, % Cont ([5]; 50 μM): 474.3% | 3H-Dopamine Uptake, Mean ([5]; 50 μM): 56826 ± 2656 | TH Immunochemistry, % control, Mean ([6]; 0.5 μM): 123.9% | TH Immunochemistry, % control, individual cultures ([6]; 0.5 μM): 129.0% and 117.6% and 125.2% | TH Immunochemistry, cells/cm^2, Mean ([6]; 0.5 μM): 335.63 cells/cm^2 | TH Immunochemistry, cells/cm^2, individual cultures ([6]; 0.5 μM): 340.0 cells/cm^2 and 310.0 cells/cm^2 and 330.0 cells/cm^2 and 362.5 cells/cm^2 | TH Immunochemistry, % control, Mean ([6]; 5.0 μM): 132.1% | TH Immunochemistry, % control, individual cultures ([6]; 5.0 μM): 122.3% and 129.9% and 137.5% and 138.5% | TH Immunochemistry, cells/cm^2, Mean ([6]; 5.0 μM): 348.13 cells/cm^2 | TH Immunochemistry, cells/cm^2, individual cultures ([6]; 5.0 μM): 322.5 cells/cm^2 and 342.5 cells/cm^2 and 362.5 cells/cm^2 and 365.0 cells/cm^2 | TH Immunochemistry, % control, Mean ([6]; 50 μM): 144.9% | TH Immunochemistry, % control, individual cultures ([6]; 50 μM): 117.6% and 167.9% and 144.1% and 149.8% | TH Immunochemistry, cells/cm^2, Mean ([6]; 50 μM): 381.88 cells/cm^2 | TH Immunochemistry, cells/cm^2, individual cultures ([6]; 50 μM): 310.0 cells/cm^2 and 442.5 cells/cm^2 and 380.0 cells/cm^2 and 395.0 cells/cm^2
